Assay results published in patent US7507739B2, “6-[(substituted)phenyl]triazolopyrimidines as anticancer agents” (Wyeth, priority 2003, dated 2009).

Legend:
S1 cells = assay: MTS cytotoxicity test with S1 cells; format: cell-based; conditions: Homo sapiens
Source text: (§1) Human cancer cell lines, unless otherwise noted, are obtained from the American Type Culture Collection (Rockville, Md.). The following drug-sensitive parental cell lines, and their derived drug-resistant counterparts, are obtained from the originators as listed: (a) S1 (parental line from a subclone of human colon carcinoma line LS174T) and derived S1-M1-3.2 (herein called S1-M1) which expresses the MXR drug transporter protein, are provided by Dr. L. Greenberger, Wyeth Research (Rabindran, S. K., He, H., Singh, M., Brown, E., Collins, K. I., Annable, T., and Greenberger, L. M. Reversal of a novel multidrug resistance mechanism in human colon carcinoma cells by fumitremorgin C. Cancer Res., 58:5850-5858,1998); (b) parental HL-60 human promyelocytic leukemia line and derived HL-60/ADR, which expresses the MRP1 drug transporter protein, are provided by Dr. M. Center, University of Kansas (McGrath, T., and Center, M. S. Adriamycin resistance in HL60 cells in the absence of detectable P-glycoprotein. Biochem. Biophys. […] J. Biol. Chem., 261: 7762-7770,1986) via Dr. L. Greenberger, Wyeth Research.
(§2) The assay, which is sold in kit form by Promega (Madison, Wis.; CellTiter 96 AQueous Non-Radioactive Cell Proliferation Assay), is based on the conversion by viable cells, but not by dead cells, of the tetrazolium salt, MTS (3-(4,5-dimethylthiazol-2-yl)-5-(3-carboxymethoxyphenyl)-2-(4-sulphophenyl)-2H-tetrazolium, inner salt), into a water-soluble colored formazan which is detected by spectrophotometry. Compounds are tested at nine concentrations, in order to determine IC50 values. For the test procedure, cells are harvested by trypsinization (or, in the case of non-adherent cells, by simple resuspension), washed, counted and distributed to wells of 96-well flat-bottom microtiter plates at 1000 cells per well in 200 μL of medium. In addition, one row of wells on a separate plate received cells as above (“time 0” plate). All plates are incubated at 37° in humidified 5% CO2 in air for about 24 hr.
(§3) On day 2, compounds for test are diluted and added to wells. Compounds are dissolved in DMSO at 10 mg/mL. For each compound, nine serial 2-fold dilutions are prepared in DMSO. Ten μL of each dilution in DMSO is transferred to 100 μL of medium, mixed well, and then 5 μL of this dilution is transferred in quadruplicate to wells containing cells. […] Plates are returned to the incubator for three days. At the time of drug addition to the experimental plates, the MTS assay is run on the “time 0” plate. This produced the “time 0 MTS value” which is related to the number of viable cells per well at the time of drug addition.
(§4) After three days of culture with test compounds (day 5 overall), the MTS assay is done on all wells of the experimental plates. The absorbance values of the quadruplicate sample wells are averaged and divided by the average of the “time 0” values. […] The nine values for each compound are plotted against concentration, and the concentration that produced a relative color yield half way between the maximum and minimum is taken as the IC50 value.
(§5) S1-M1 cells overexpress the MXR transporter which mediates resistance to some chemotherapeutics (Gottesman, M. M., Fojo, T., and Bates, S. E. Miltidrug resistance in cancer: role of ATP-dependent transporters. Nature Rev. Cancer, 2: 48-58, 2002). The IC50 values of representative examples of this invention, as well as reference compounds, on S1-M1 are compared to values on the sensitive parental S1 line.

HL-60/ADR cells = assay: MTS cytotoxicity test with HL-60/ADR cells (MRP1); format: cell-based, human; conditions: for Ratio: IC50 on HL-60/ADR cells/IC50 on HL-60 cells
Source text: as §1, §2, §3, §4
as §5, with “HL-60/ADR” for “S1-M1”, “multidrug resistance protein MRP1” for “MXR transporter”, “Multidrug” for “Miltidrug”, “HL-60” for “S1”

HL-60 cells = assay: MTS cytotoxicity test with HL-60 cells; format: cell-based; conditions: Homo sapiens; HL-60 cells, MTS; read-out: IC50 HL-60
Source text: as §1, §2, §3, §4
as §5, with “HL-60/ADR” for “S1-M1”, “multidrug resistance protein MRP1” for “MXR transporter”, “Multidrug” for “Miltidrug”, “HL-60” for “S1”

S1-M1 cells = assay: MTS cytotoxicity test with S1-M1 cells (MXR); format: cell-based, human; conditions: for IC50: Homo sapiens, S1-M1 cells, MTS, read-out: IC50 S1-M1; for Ratio: IC50 on S1-M1 cells/IC50 on S1 cells
Source text: as §1, §2, §3, §4, §5

KB-V1 cells = assay: MTS cytotoxicity test with KB-V1 cells (very high P-glycoprotein); format: cell-based, human; conditions: for IC50: Homo sapiens, KB-V1 cells, MTS; for Ratio VI/KB: IC50 on KB VI cells/IC50 on KB cells
Source text: as §1, §2, §3, §4
(§6) The KB lines express different amounts of the P-glycoprotein (MDR1) membrane pump which produces resistance to the action of many cytotoxic compounds, including paclitaxel and vincristine. The parental KB line expresses no P-glycoprotein, KB-8-5 expresses moderate levels of the protein, and KB-V1 expresses very high levels.

KB-8-5 cells = assay: MTS cytotoxicity test with KB-8-5 cells (moderate P-glycoprotein); format: cell-based, human; conditions: for IC50: Homo sapiens, KB-8-5 cells, MTS, read-out: IC50 KB 8.5; for Ratio 8.5/KB: IC50 on KB 8.5 cells/IC50 on KB cells
Source text: as §1, §2, §3, §4, §6

KB cells = assay: MTS cytotoxicity test with KB cells; format: cell-based; conditions: Homo sapiens; KB cells, MTS; read-out: IC50 KB
Source text: as §1, §2, §3, §4, §6

Row | SMILES | IC50 (S1 cells) | IC50 (HL-60/ADR cells; Homo sapiens, HL60/ADR, HL-60/ADR cells, MTS, read-out: IC50 HL-60/ADR) | Ratio (HL-60/ADR cells) | IC50 (HL-60 cells) | IC50 (S1-M1 cells) | Ratio (S1-M1 cells) | IC50 (KB-V1 cells) | Ratio VI/KB (KB-V1 cells) | IC50 (KB-8-5 cells) | Ratio 8.5/KB (KB-8-5 cells) | IC50 (KB cells) | Ratio (S1-M1 cells; listed as mitoxantrone) | Ratio VI/KB (KB-V1 cells; listed as doxorubicin)
1 | CC[C@@]1(O)C(=O)OCc2c1cc1n(c2=O)Cc2cc3ccccc3nc2-1 [Camptothecin, reference compound] | 8.9 nM | 17 nM | 1.4 | 12 nM | 17 nM | 1.9 | 39 nM | 1.6 | 33 nM | 1.4 | 24 nM |  | 
2 | O=C1c2c(O)ccc(O)c2C(=O)c2c(NCCNCCO)ccc(NCCNCCO)c21 [Mitoxantrone, reference compound] | 10 nM |  | 17 | 9.5 nM | > 3000 nM | >300 |  | 77 | 27 nM | 1.1 | 25 nM | > 300 | 
3 | COc1cccc2c1C(=O)c1c(O)c3c(c(O)c1C2=O)C[C@@](O)(C(=O)CO)C[C@@H]3O[C@H]1C[C@H](N)[C@H](O)[C@H](C)O1 [Doxorubicin, reference compound] | 34 nM |  | 93 | 23 nM |  | 74 | > 3000 nM | >130 | 70 nM | 3.0 | 23 nM |  | > 130
